The test system of series [1] is human embryonic stem cell line H1. In words: Dose titration secondary assay: cell number, H1. The conditions noted are these: Homo sapiens, Embryonic stem cell, positive control (Wnt3a/Activin A) normalized to 1.000; for activity at 0.156 µM: Conc 0.156 μM; for activity at 0.313 µM: Conc 0.313 μM; for activity at 0.625 µM: Conc 0.625 μM; for activity at 1.25 µM: Conc 1.25 μM; for activity at 2.5 µM: Conc 2.5 μM; for activity at 5 µM: Conc 5 μM; for activity at 10 µM: Conc 10 μM. In kind it is cell-based. How it is done: It was important to confirm the activity of hits identified from primary screening and further analyze the range of activity by dose titration. New samples of a selective subset of primary screening hits were obtained as dry powders, solubilized to make fresh stock reagents, and diluted into secondary confirmation assays to evaluate effects on human embryonic stem cells.
Culture of two human embryonic stem cells (H1 and H9) was conducted as described in Example 1. Colonies of cells were maintained in an undifferentiated, pluripotent state on Matrigel™ ([…]) coated polystyrene plastic, using a 1:30 dilution of Matrigel™ in DMEM:F12 to coat the surface. Cells were split by enzymatic passage every four days on average. Passage was performed by exposing cell monolayers to a solution of collagenase (1 mg/ml; Sigma-Aldrich) for 10 to 60 minutes at 37° C. followed by gentle scraping with a pipette tip to recover cell clusters. Clusters were allowed to sediment by gravity, then washed to remove residual collagenase. Cell clusters were split at a 1:3 ratio for maintenance culture or a 1:1 ratio for subsequent assay. The human embryonic stem cell lines were maintained at less than passage 50 and routinely evaluated for normal karyotypic phenotype and absence of mycoplasma contamination.
Cell clusters of the H1 or H9 human embryonic stem cell lines used in the assay were evenly resuspended in culture medium and plated onto Matrigel™-coated 96-well Packard VIEWPLATES (PerkinElmer) in volumes of 100 μl/well. MEF conditioned medium supplemented with 8 ng/ml bFGF was used for initial plating and expansion. Daily feeding was conducted by aspirating spent culture medium from each well and replacing with an equal volume of fresh medium. Cultures were allowed to expand one to three days after plating prior to initiating assay. Plates were maintained at 37° C., 5% CO2 in a humidified box for the duration of assay.
A subset of hits resulting from primary screening was used for follow-up study and subsequent secondary assays. Twenty compounds available as dry powders were solubilized as 10 mM stocks in DMSO and stored dessicated at […] until use Immediately prior to assay, compound stocks were diluted 1:1000 to make 10 μM test compound in DMEM:F12 base medium (Invitrogen) supplemented with 0.5% FCS (HyClone) and 100 ng/ml Activin A (R&D Biosystems). This was further diluted two-fold in series to make a seven point dilution curve for each compound, also in DMEM:F12 base medium with 0.5% FCS and 100 ng/ml Activin A.
Assay was initiated by aspirating culture medium from cell monolayers in each well followed by three washes in PBS to remove residual growth factors and serum. Test volumes of 100 μl per well were added back containing medium with 0.5% FCS and different concentrations of inhibitor compounds with 100 ng/ml Activin A, without Wnt3a. Positive control wells contained the same base medium with 0.5% FCS and with 20 ng/ml Wnt3a (R&D Biosystems) in the absence of test compound. Negative control wells contained the same base medium with 0.5% FCS, in the absence of Activin A, Wnt3a, or test compound. Assay wells were aspirated and fed again with identical concentrations of test compound or control solutions on day 2 of assay. On days 3 and 4, all assay wells were aspirated and fed with DMEM:F12 supplemented with 2% FCS and 100 ng/ml Activin A in the absence of both test compound or Wnt3a. Parallel negative control wells were maintained on days 3 and 4 in DMEM:F12 base medium with 2% FCS.
At the end of culture, cells in 96-well plates were washed twice with PBS then fixed with 4% paraformaldehyde at room temperature for 20 minutes, washed three times more with PBS, and then permeabilized with 0.5% Triton X-100 for 20 minutes at room temperature. After fixing and permeabilizing, cells were washed again three times with PBS and then blocked with 4% chicken serum (Invitrogen) in PBS for 30 minutes at room temperature. […]

A short description of series [2]: MTS viability (toxicity) assay of cells expressing pluripotency markers. In kind it is cell-based, human. On the set-up: Raw data (duplicate), first replicate / Average: unit not given here. Conditions: human, MTS on day 4, relative to Activin A + Wnt3a positive control, read-out: % Control (percentage viability of control); for viability at 4 days, 2.5 μM: cmpd conc 2.5 μM; for viability at 4 days, 5 μM: cmpd conc 5 μM; for viability at 4 days, 10 μM: cmpd conc 10 μM. The essentials:
(§1)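 Cells expressing pluripotency markers, derived from human embryonic stem cells, were plated at 20,000 cells per well in 96-well clear-bottom plates and cultured overnight. Test compounds were applied in assay medium on days 1 and 2, and compound-free medium on days 3 and 4. On day 4, MTS was added and optical density at 490 nm was read in duplicate.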

Series [3] relates to cells expressing pluripotency markers derived from human embryonic stem cells. Described as above. Type of series: cell-based. Conditions: for viability at 10 µM: Homo sapiens, Embryonic stem cell, viability of cells expressing pluripotency markers, relative to control; for Raw data (duplicate), first replicate / Raw data (duplicate), second replicate: MTS viability assay raw reading; for Raw data (duplicate), first replicate: replicate 1; for Raw data (duplicate), second replicate: replicate 2; for Average: average of duplicate MTS raw readings; for Average of raw data (duplicate), optical density at 490 nm: MTS on day 4. The arrangement: Raw data (duplicate), first replicate / Average: unit not given here. The gist of the method:
as §1
A general note: Formazan colour is commonly taken as a measure of viable cells.

By viability is commonly meant a read-out of living cells in per cent, often relative to untreated cells.

Consider `O=C1NC(=O)C(c2nn(CCCO)c3ccccc23)=C1c1cn(-c2cccnc2)c2ccc(Cl)cc12` [Compound 52, 3-(5-Chloro-1-pyridin-3-yl-1H-indol-3-yl)-4-[1-(3-hydroxypropyl)-1H-indazol-3-yl]-1H-pyrrole-2,5-dione], for which, in series [1], the activity at 0.156 µM turned out to be 82.6%, the activity at 0.313 µM is 103%, the activity at 0.625 µM was determined as 130% and the activity at 1.25 µM worked out at 145%. For the same compound, in series [1], the activity at 2.5 µM came out at 110%, the activity at 5 µM is 2.4% and the activity at 10 µM was 0%. Besides, in series [2], the viability at 4 days, 2.5 μM turned out to be 92%; the viability at 4 days, 5 μM worked out at 40.1%; the viability at 4 days, 10 μM is 2.3%. In series [3], the viability at 10 µM turned out to be 110%; the “Raw data (duplicate), first replicate” value was found to be 0.911; the “Raw data (duplicate), second replicate” value was 0.884; the Average was 0.898. In series [3] (cmpd conc 2.5 μM), the “Average of raw data (duplicate), optical density at 490 nm” value (“Average of raw data (duplicate)” below) came out at 0.7886. Besides, in series [3] (cmpd conc 5 μM), the “Average of raw data (duplicate)” value is 0.4156. Moreover, in series [3] (cmpd conc 10 μM), the “Average of raw data (duplicate)” value was found to be 0.1448.

Regarding `CN(C)CCCn1c2c(c3ccccc31)C1=C(C(=O)NC1=O)N(c1cccc(Cl)c1)C2` [Compound 101, 4-(3-Chlorophenyl)-6-[3-(dimethylamino)propyl]-5,6-dihydropyrrolo[3′,4′:5,6]pyrido[3,4-b]indole-1,3(2H,4H)-dione], in series [1], the activity at 0.156 µM is 81.2%, the activity at 0.313 µM was found to be 61.7%, the activity at 0.625 µM was determined as 69.9% and the activity at 1.25 µM was determined as 116%. Besides, in series [1], the activity at 2.5 µM was found to be 100%, the activity at 5 µM came out at 76.8% and the activity at 10 µM was 49.6%. In series [2], the viability at 4 days, 2.5 μM stood at 100%; the viability at 4 days, 5 μM is 95.9%; the viability at 4 days, 10 μM was 1.3%. Moreover, in series [3], the viability at 10 µM stood at 100%; the “Raw data (duplicate), first replicate” value came out at 0.791; the “Raw data (duplicate), second replicate” value amounted to 0.768; the Average came out at 0.779. In addition, the “Average of raw data (duplicate)” value in series [3] (cmpd conc 2.5 μM) is given as 0.7987. For the same compound, in series [3] (cmpd conc 5 μM), the “Average of raw data (duplicate)” value turned out to be 0.7702. Moreover, the “Average of raw data (duplicate)” value in series [3] (cmpd conc 10 μM) turned out to be 0.1390.

For the compound `O=C1NC(=O)C(c2cn(CCOCCOCCO)c3ccccc23)=C1c1cn(CCO)c2ccccc12` [Compound 110, 3-[1-(2-Hydroxyethyl)-1H-indol-3-yl]-4-{1-[2-({2-[(2-hydroxyethyl)oxy]ethyl}oxy)ethyl]-1H-indol-3-yl}-1H-pyrrole-2,5-dione], in series [1], the activity at 0.156 µM worked out at 97.4%, the activity at 0.313 µM worked out at 116%, the activity at 0.625 µM worked out at 119% and the activity at 1.25 µM came to 111%. For the same compound, in series [1], the activity at 2.5 µM was 117%, the activity at 5 µM is 53% and the activity at 10 µM stood at 12.9%. In addition, in series [2], the viability at 4 days, 2.5 μM came out at 104%; the viability at 4 days, 5 μM stood at 98.5%; the viability at 4 days, 10 μM is 81.6%. Moreover, in series [3], the viability at 10 µM was 112%; the “Raw data (duplicate), first replicate” value was 0.948; the “Raw data (duplicate), second replicate” value stood at 0.764; the Average was 0.856. Further, the “Average of raw data (duplicate)” value in series [3] (cmpd conc 2.5 μM) amounted to 0.8272. The “Average of raw data (duplicate)” value in series [3] (cmpd conc 5 μM) is reported as 0.7879. Further, in series [3] (cmpd conc 10 μM), the “Average of raw data (duplicate)” value is reported as 0.6747.

`O=C1NC(=O)C(c2cn(CCOCCOCCNC3CCCc4ccccc43)c3ccccc23)=C1c1cn(CCNC2CCCc3ccccc32)c2ccccc12` (stereo not drawn) [Compound 144, 3-{1-[2-(1,2,3,4-Tetrahydronaphthalen-1-ylamino)ethyl]-1H-indol-3-yl}-4-(1-{2-[(2-{[2-(1,2,3,4-tetrahydronaphthalen-1-ylamino)ethyl]oxy}ethyl)oxy]ethyl}-1H-indol-3-yl)-1H-pyrrole-2,5-dione]: in series [1], the activity at 0.156 µM is 59.4%, the activity at 0.313 µM came to 73.4%, the activity at 0.625 µM was determined as 89.5% and the activity at 1.25 µM amounted to 55.2%. In series [1], the activity at 2.5 µM was found to be 19.2%, the activity at 5 µM was 0% and the activity at 10 µM came out at 0%. In addition, in series [2], the viability at 4 days, 2.5 μM was determined as 23.9%; the viability at 4 days, 5 μM was determined as 2.5%; the viability at 4 days, 10 μM stood at 2.4%. Also, in series [3], the viability at 10 µM came out at 106%; the “Raw data (duplicate), first replicate” value was determined as 0.840; the “Raw data (duplicate), second replicate” value worked out at 0.832; the Average was 0.836. Also, in series [3] (cmpd conc 2.5 μM), the “Average of raw data (duplicate)” value is reported as 0.2898. The “Average of raw data (duplicate)” value in series [3] (cmpd conc 5 μM) was 0.1473. The “Average of raw data (duplicate)” value in series [3] (cmpd conc 10 μM) was 0.1464.

In the case of `CN(C)c1cccc(-n2cc(C3=C(c4nn(CCO)c5ccccc45)C(=O)NC3=O)c3ccccc32)c1` [Compound 145, 3-{1-[3-(Dimethylamino)phenyl]-1H-indol-3-yl}-4-[1-(2-hydroxyethyl)-1H-indazol-3-yl]-1H-pyrrole-2,5-dione], in series [1], the activity at 0.156 µM was 46.9%, the activity at 0.313 µM is 66.5%, the activity at 0.625 µM stood at 71.3% and the activity at 1.25 µM is 128%. In series [1], the activity at 2.5 µM amounted to 135%, the activity at 5 µM worked out at 33.9% and the activity at 10 µM worked out at 2.1%. In addition, in series [2], the viability at 4 days, 2.5 μM was found to be 94.5% and the viability at 4 days, 5 μM was found to be 68.4%. In series [3], the viability at 10 µM amounted to 105%; the “Raw data (duplicate), first replicate” value is 0.831; the “Raw data (duplicate), second replicate” value is on record as 0.822; the Average turned out to be 0.826. The “Average of raw data (duplicate)” value in series [3] (cmpd conc 2.5 μM) was found to be 0.7608. Besides, the “Average of raw data (duplicate)” value in series [3] (cmpd conc 5 μM) stood at 0.5871. Moreover, the “Average of raw data (duplicate)” value in series [3] (cmpd conc 10 μM) came out at 0.1277.

For the origin of these results see patent US20130337564A1, “Treatment of Pluripotent Cells” (Janssen Biotech, Inc., priority 2012, published 2013).
